The record followed here is ChEMBL document CHEMBL1201862, “PubChem BioAssay data set” (2004).

Common to all, as to assay: NCI anticancer screen, dose series, 48 h
Assay [1] relates to DMS-273.
Assay [2] concerns HCT-15.
In assay [3] the test system is HOP-62.
Assay [4] has as its system HOP-92.
In assay [5] the test system is HT-29.
Assay [6] has as its system IGROV-1.
Assay [7] deals with KM12.
The subject of assay [8] is MOLT-4.
In assay [9] the test system is NCI-H522.
The subject of assay [10] is OVCAR-3.
The subject of assay [11] is SK-MEL-2.
Assay [12] has as its system SK-MEL-5.
Assay [13] relates to SW-620.
The test system of assay [14] is TK-10.
For assay [15], the system named is UACC-62.
For assay [16], the system named is UO-31.

The structures appear in SMILES notation.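 Values below derive from 48-hour exposures of cells grown in 96-well plates, with endpoints linearly interpolated between the two concentrations bracketing the appropriate inhibition level. GI50 = concentration required for 50% inhibition of growth.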 The source made the active and inactive calls. Cut-off read from the data, not from the text of the source: active = GI50 up to about 1.1 µM and inactive = higher.

Take `O=C1c2ccccc2-c2cccc3ccc(Cc4ccccc4)c1c23`: the GI50 in assay [1] is > 100 µM (inactive); in assay [2] it was above 100 µM; in assay [3] it was > 100 µM (inactive); in [4] it was > 100 µM (inactive); in [5], > 100 µM (inactive); in assay [6], > 100 µM (inactive). The GI50 in assay [7], in assay [8], in [9], in assay [10], in assay [11] and in [12] was > 100 µM (inactive) throughout. For the same compound, the GI50 in assay [13], in assay [14], in [15] and in assay [16] was > 100 µM (inactive) each time.

Turning to `CCc1cccc(C)c1NC(=O)CC1C(=O)Nc2ccccc2[S+]1[O-]` (stereo not given), the GI50 is 42.2 µM (inactive) in assay [1]; 35.6 µM in [2]; 71.4 µM (inactive) in assay [3]; 53.7 µM (inactive) in assay [4]; 33.4 µM (inactive) in assay [5]; 54.2 µM (inactive) in assay [7]. The GI50 was 37.1 µM (inactive) in assay [8]; 31.1 µM (inactive) in [9]; 57.3 µM (inactive) in assay [10]; 43.5 µM (inactive) in [11]; 48.3 µM (inactive) in assay [13]; > 100 µM (inactive) in assay [14]. Moreover, in [16], the GI50 was 98.2 µM (inactive).

With `CN(C)CCC(/C=C/c1ccccc1)=N\Nc1ccc(Cl)cc1`, the GI50 in assay [1] was 2.11 µM (inactive); in [2], 3.01 µM; in assay [3] it was 1.8 µM (inactive); in [4], 2.18 µM (inactive); in [5] it was 3.86 µM (inactive); in [6] it was 2.64 µM (inactive). Further, the GI50 was 2.84 µM (inactive) in assay [7]; 2.23 µM (inactive) in assay [8]; 3.24 µM (inactive) in [9]; 8.69 µM (inactive) in assay [10]; 2 µM (inactive) in assay [11]; 14.7 µM (inactive) in assay [12]. Further, the GI50 was 3.87 µM (inactive) in assay [13], 2.89 µM (inactive) in [14], 2.03 µM (inactive) in assay [15] and 1.71 µM (inactive) in assay [16].

Take `O=C1/C(=N\O)S(=O)(=O)c2ccccc21`: the GI50 in assay [1] was > 100 µM (inactive); in assay [2], above 100 µM; in [3] it was > 100 µM (inactive); in assay [4] it was > 100 µM (inactive); in assay [5], 92.7 µM (inactive); in [6], > 100 µM (inactive). Also, the GI50 in [7], in assay [8], in assay [9], in [11], in assay [12] and in [13] was > 100 µM (inactive) in each case. In addition, the GI50 in assay [14], in assay [15] and in [16] was > 100 µM (inactive) throughout.

`O=C(c1ccccc1)c1c(-c2ccccc2)sc2nc3ccccc3nc12`: the GI50 was > 100 µM (inactive) in assay [1]; above 100 µM in assay [2]; 34.8 µM (inactive) in [3]; 16.4 µM (inactive) in assay [4]; > 100 µM (inactive) in [5]; > 100 µM (inactive) in [6]. Further, the GI50 in [7] was > 100 µM (inactive); in assay [8] it was > 100 µM (inactive); in [9], > 100 µM (inactive); in assay [10] it was > 100 µM (inactive); in assay [11] it was > 100 µM (inactive); in assay [12], 80.9 µM (inactive). The GI50 in [13], in assay [14] and in assay [15] was > 100 µM (inactive) in each case.

Turning to `Cc1cc(=O)cc2sc3cc(Cl)ccc3nc1-2`, the GI50 is 6.17 µM (inactive) in assay [1]; 3.95 µM in [2]; 15.6 µM (inactive) in assay [3]; 22.3 µM (inactive) in [4]; 20.3 µM (inactive) in [5]; 12.1 µM (inactive) in assay [6]. The GI50 in [7] was 4.5 µM (inactive); in [8], 12.6 µM (inactive); in assay [9], 2.54 µM (inactive); in assay [10] it was 8.89 µM (inactive); in assay [11], 7.01 µM (inactive); in assay [12] it was 3.65 µM (inactive). For the same compound, the GI50 in assay [13] was 6.9 µM (inactive); in assay [14], 25.4 µM (inactive); in assay [15], 6.84 µM (inactive); in assay [16] it was 13.7 µM (inactive).

Take `Cc1cc([N+](=O)[O-])ccc1Nc1cccc(Cl)c1C`: the GI50 is 14.6 µM (inactive) in [1]; 16.8 µM in [2]; 14.7 µM (inactive) in assay [3]; 17.6 µM (inactive) in assay [5]; 13.6 µM (inactive) in assay [6]; 16 µM (inactive) in assay [7]. Further, the GI50 is 14.8 µM (inactive) in assay [8]; 16.1 µM (inactive) in [9]; 13.7 µM (inactive) in assay [10]; 14.9 µM (inactive) in assay [11]; 15.6 µM (inactive) in assay [12]; 24.3 µM (inactive) in assay [13]. The GI50 in assay [14] was 14.8 µM (inactive); in [15], 12.6 µM (inactive); in assay [16] it was 11.7 µM (inactive).

In the case of `COC(=O)C(=O)C(C#N)c1c(Cl)cccc1Cl` (stereo not given), the GI50 in assay [1] was > 100 µM (inactive); in assay [2], above 100 µM; in assay [3], > 100 µM (inactive); in assay [4], > 100 µM (inactive); in [5], > 100 µM (inactive); in [6], > 100 µM (inactive). Further, the GI50 in [8], in [9], in [10], in assay [11], in assay [12] and in assay [13] was > 100 µM (inactive) each time. The GI50 in [14], in [15] and in [16] was > 100 µM (inactive) throughout.

For `COC(=O)C1C=CCON2CCc3c(n(C)c4ccccc34)C12` (stereo not given), the GI50 in assay [1] was > 100 µM (inactive); in [2], above 100 µM; in assay [3], > 100 µM (inactive); in [4] it was > 100 µM (inactive); in assay [5], > 100 µM (inactive); in assay [6] it was > 100 µM (inactive). In addition, the GI50 in assay [7], in assay [8], in [9], in assay [10], in assay [11] and in assay [12] was > 100 µM (inactive) in each case. Besides, the GI50 in [13], in assay [14] and in assay [16] was > 100 µM (inactive) each time.

Regarding `CN(C)CCCCC1CCN(CC(=O)N2c3ccccc3NC(=O)c3ccccc32)CC1`, the GI50 is > 100 µM (inactive) in assay [1]; > 100 µM (inactive) in assay [3]; > 100 µM (inactive) in assay [4]; 61.2 µM (inactive) in assay [5]; > 100 µM (inactive) in assay [7]; > 100 µM (inactive) in [8]. Further, the GI50 in [9], in assay [10], in assay [11], in [12], in [13] and in assay [14] was > 100 µM (inactive) each time. Also, the GI50 in [15] and in assay [16] was > 100 µM (inactive) in each case.
